Our source for the IC50 values is patent US7713994B2 (Wyeth LLC, priority 2005, dated 2010).

One assay has as its system LoVo. Kind of assay: Cytotoxicity assay (SRB), LoVo. It counts as cell-based. The settings on record: read-out: In Vitro Cellular Activity IC50 LOVO. The method, boiled down: (§1)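 Protein staining with sulforhodamine B after cold TCA fixation served as the survival endpoint (A540, relative to untreated cells). Before staining, cells were incubated with compound at 37 °C, 7% CO2 for 3 days, or 6 days for BT474.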

In another assay the target is T1, cyclin D1/cdk 4 enzyme (Homo sapiens, UniProt P11802).
T1 construct: made in house; host or cells: Sf9 insect cells, recombinant baculovirus
T1 sequence (P11802 whole entry, species assumed): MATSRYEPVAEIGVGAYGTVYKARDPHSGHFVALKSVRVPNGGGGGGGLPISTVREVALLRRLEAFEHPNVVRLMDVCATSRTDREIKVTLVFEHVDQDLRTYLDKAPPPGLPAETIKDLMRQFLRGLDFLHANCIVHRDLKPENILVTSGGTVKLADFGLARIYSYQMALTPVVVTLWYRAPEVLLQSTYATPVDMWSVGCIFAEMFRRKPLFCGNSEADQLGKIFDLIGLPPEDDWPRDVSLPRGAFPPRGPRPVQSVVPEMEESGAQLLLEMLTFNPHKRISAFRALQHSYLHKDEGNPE
T1 sequence (P24385 whole entry partner, species assumed): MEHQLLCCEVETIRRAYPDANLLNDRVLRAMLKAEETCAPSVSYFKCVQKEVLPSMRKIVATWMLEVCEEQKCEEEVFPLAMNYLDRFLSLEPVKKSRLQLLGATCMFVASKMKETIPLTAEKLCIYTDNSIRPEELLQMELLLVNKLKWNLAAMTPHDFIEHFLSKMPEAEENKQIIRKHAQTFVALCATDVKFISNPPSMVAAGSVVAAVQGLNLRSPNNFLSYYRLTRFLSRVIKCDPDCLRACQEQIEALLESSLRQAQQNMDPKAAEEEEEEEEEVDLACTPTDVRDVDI
In words: CDK4 ELISA kinase assay (phospho-Rb ser 795 detection). Format: biochemical. In a few lines: (§2)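 GST-Rb C-terminal fragment coated on plates; partially purified Sf9-expressed cyclin D1/CDK4, cyclin E/CDK2 or cyclin B/CDK1 with 200 μM ATP, pH 7.5 HEPES/MgCl2 buffer, 1 h at 30 °C; screen compound final 10 μg/ml. Phospho-Rb Ser795 detected by antibody ELISA (TMB, A450); % of control, IC50 from background-subtracted inhibition curves.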
For orientation: An ELISA detects its analyte on a solid surface through an enzyme-linked reagent.

The test system of a further assay is BT474. Kind of assay: Cytotoxicity assay (SRB), BT474. Format: cell-based. The settings on record: read-out: In Vitro Cellular Activity IC50 BT474. In a few lines: as §1
In another assay the test system is HCT-116. Kind of assay: Cytotoxicity assay (SRB), HCT-116. It counts as cell-based. The settings on record: read-out: In Vitro Cellular Activity IC50 HCT116. In a few lines:
as §1

Another assay concerns the target T2, cyclin B/CDK1 enzyme (Homo sapiens, UniProt P06493).
T2 construct: purchased New England BioLabs; host or cells: Sf9 insect cells, recombinant baculovirus
Kind of assay: CDK1 ELISA kinase assay (phospho-Rb ser 795 detection). It counts as biochemical. In a few lines:
as §2

The next assay deals with T3, cyclin E/CDK2 enzyme (Homo sapiens, UniProt P24941).
T3 construct: made in house; host or cells: Sf9 insect cells, recombinant baculovirus
In words: CDK2 ELISA kinase assay (phospho-Rb ser 795 detection). Format: biochemical. In a few lines:
as §2

Another assay deals with MCF-7. Kind of assay: Cytotoxicity assay (SRB), MCF-7. Format: cell-based. The settings on record: read-out: In Vitro Cellular Activity IC50 MCF-7. In a few lines: as §1
Where [1] appears, read: In Vitro Enzyme Assays, 200 μM ATP, read-out: CDK4 IC50.
[2] abbreviates: In Vitro Enzyme Assays, read-out: CDK1 IC50.
Where [3] appears, read: In Vitro Enzyme Assays, read-out: CDK2 IC50.
Where [4] appears, read: Homo sapiens, LoVo, 72 h, LoVo cells, 3 days, SRB.
Where [5] appears, read: In Vitro Enzyme Assay, cyclin D1/cdk 4, read-out: CDK4 IC50.
Setting [6] is: Homo sapiens, BT-474, 144 h, BT474 cells, 6 days, SRB.
[7] abbreviates: Homo sapiens, HCT-116, 72 h, HCT116 cells, 3 days, SRB.
Setting [8] is: In Vitro Enzyme Assay, cyclin B/CDK1, read-out: CDK1 IC50.
The mark [9] stands for this setting: In Vitro Enzyme Assay, cyclin E/CDK2, read-out: CDK2 IC50.
[10] abbreviates: Homo sapiens, MCF7, 72 h, MCF-7 cells, 3 days, SRB.
[11] abbreviates: Homo sapiens, LoVo, 72 h, LoVo cells, SRB, three days.
The mark [12] stands for this setting: Homo sapiens, BT-474, 144 h, BT474 cells, SRB, 6 days.
Where [13] appears, read: Homo sapiens, HCT-116, 72 h, HCT116 cells, SRB, three days.
[14] abbreviates: Homo sapiens, MCF7, 72 h, MCF-7 cells, SRB, three days.

Where two headings read alike, the source gives them in different places.

T2 sequence (P06493 whole entry): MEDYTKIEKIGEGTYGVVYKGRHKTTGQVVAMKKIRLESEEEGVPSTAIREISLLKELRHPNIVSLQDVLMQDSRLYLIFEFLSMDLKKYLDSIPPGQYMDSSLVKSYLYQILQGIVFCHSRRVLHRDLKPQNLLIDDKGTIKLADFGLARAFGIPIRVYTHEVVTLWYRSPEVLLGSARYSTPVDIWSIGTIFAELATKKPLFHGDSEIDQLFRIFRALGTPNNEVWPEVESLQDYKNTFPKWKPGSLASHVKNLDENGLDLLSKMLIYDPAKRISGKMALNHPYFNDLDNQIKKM
T2 sequence (P14635 whole entry partner): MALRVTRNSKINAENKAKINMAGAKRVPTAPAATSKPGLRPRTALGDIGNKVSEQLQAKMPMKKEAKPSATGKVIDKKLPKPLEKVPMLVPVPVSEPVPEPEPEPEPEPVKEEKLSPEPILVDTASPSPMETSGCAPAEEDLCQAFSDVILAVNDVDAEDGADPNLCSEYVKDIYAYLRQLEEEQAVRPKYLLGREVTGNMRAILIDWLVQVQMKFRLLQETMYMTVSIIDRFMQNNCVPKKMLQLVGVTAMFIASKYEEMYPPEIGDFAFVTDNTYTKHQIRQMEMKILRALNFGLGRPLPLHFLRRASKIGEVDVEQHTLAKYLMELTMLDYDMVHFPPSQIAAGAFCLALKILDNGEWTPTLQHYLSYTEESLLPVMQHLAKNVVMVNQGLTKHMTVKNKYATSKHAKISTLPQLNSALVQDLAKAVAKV

Turning to `CN1CCN(c2ccc(N/C=C3\C(=O)NC(=O)c4ccc(NC(=O)Cc5cccs5)cc43)cc2)CC1` [Example 198, 1,2,3,4-Tetrahydroisoquinolin-6-yl]-2-thien-2-ylacetamide ′N-[(4Z)-4-({[4-(4-methylpiperazin-1-yl)phenyl]amino}methylene)-1,3-dioxo], the 50% inhibitory concentration (IC50) – broadly, the concentration that inhibits the measured activity by half – worked out at 3.7 µM with LoVo (LoVo cells, SRB, three days); 3.1 µM at cyclin D1/cdk 4 enzyme (setting [1]); 4.3 µM with BT474 (BT474 cells, SRB, 6 days); 1.8 µM in the assay with HCT-116 (HCT116 cells, SRB, three days); 12 µM at cyclin B/CDK1 enzyme (setting [2]); 22.1 µM on cyclin E/CDK2 enzyme (setting [3]). In the assay on MCF-7 (MCF-7 cells, SRB, three days), the half-inhibitory concentration (IC50) was 4.3 µM.
As for `O=C1NC(=O)c2ccc(I)cc2/C1=C/Nc1ccc(CN2CCS(=O)(=O)CC2)cc1` [Example 483, 4-{[4-(1,1-Dioxo-1-thiomorpholin-4-ylmethyl)-phenylamino]-methylene}-6-iodo-4H-isoquinoline-1,3-dione], the IC50 in the assay with LoVo (setting [4]) was over 50 µM; on cyclin D1/cdk 4 enzyme (setting [5]) it was 16.1 µM; with BT474 (setting [6]), over 50 µM; in the assay on HCT-116 (setting [7]), 13.1 µM; at cyclin B/CDK1 enzyme (setting [8]), over 50 µM; on cyclin E/CDK2 enzyme (setting [9]) it was over 50 µM. The IC50 in the assay with MCF-7 (setting [10]) was over 50 µM.
Turning to `C=CC(=O)Nc1ccc(CN/C=C2\C(=O)NC(=O)c3ccc(Br)cc32)cc1` [Example 322, N-[4-({[(Z)-(6-Bromo-1,3-dioxo-2,3-dihydroisoquinolin-4(1H)-ylidene)methyl]amino}methyl)phenyl]acrylamide], the IC50 in the assay on LoVo (Homo sapiens, LoVo, 72 h) is 0.24 µM; at cyclin D1/cdk 4 enzyme (setting [1]), over 50 µM; in the assay on BT474 (Homo sapiens, BT-474, 144 h), 0.11 µM; in the assay on HCT-116 (Homo sapiens, HCT-116, 72 h) it was 0.25 µM; at cyclin B/CDK1 enzyme (setting [2]) it was over 50 µM; on cyclin E/CDK2 enzyme (setting [3]), 7.8 µM. Besides, the 50% inhibitory concentration (IC50) in the assay on MCF-7 (Homo sapiens, MCF7, 72 h) worked out at 0.24 µM.
In the case of `C=CC(=O)Nc1ccc(CN/C=C2\C(=O)NC(=O)c3ccc(I)cc32)cc1O` [Example 342, N-[2-Hydroxy-4-({[(Z)-(6-iodo-1,3-dioxo-2,3-dihydroisoquinolin-4(1H)-ylidene)methyl]amino}methyl)phenyl]acrylamide], the IC50 with LoVo (setting [11]) was 0.09 µM; on cyclin D1/cdk 4 enzyme (setting [1]), 0.01 µM; with BT474 (setting [12]) it was 0.07 µM; in the assay on HCT-116 (setting [13]), 0.12 µM; at cyclin B/CDK1 enzyme (setting [2]), 2.9 µM; on cyclin E/CDK2 enzyme (setting [3]), 0.86 µM. In addition, the IC50 with MCF-7 (setting [14]) worked out at 0.15 µM.
For the compound `O=C1NC(=O)c2ccc(-c3ccc(CO)cc3)cc2C1=CNc1ccc(CN2CCCC2)cc1` [Example 840, 6-(4-Hydroxymethyl-phenyl)-4-[(4-pyrrolidin-1-ylmethyl-phenylamino)-methylene]-4H-isoquinoline-1,3-dione], the IC50 with LoVo (setting [4]) was over 50 µM; on cyclin D1/cdk 4 enzyme (setting [5]), 3 µM; in the assay on BT474 (setting [6]) it was over 50 µM; in the assay with HCT-116 (setting [7]) it was 19 µM; at cyclin B/CDK1 enzyme (setting [8]), over 50 µM; at cyclin E/CDK2 enzyme (setting [9]), 31 µM. The 50% inhibitory concentration (IC50) with MCF-7 (setting [10]) was 40 µM.
Turning to `O=C1NC(=O)c2ccc(Br)cc2/C1=C/NCc1cccc(O)c1` [Example 46], the IC50 was 23 µM in the assay on LoVo (setting [11]); 0.033 µM on cyclin D1/cdk 4 enzyme (setting [1]); over 50 µM in the assay with BT474 (setting [12]); 23 µM in the assay on HCT-116 (setting [13]); over 50 µM on cyclin B/CDK1 enzyme (setting [2]); over 50 µM on cyclin E/CDK2 enzyme (setting [3]). Moreover, the IC50 in the assay with MCF-7 (setting [14]) was over 50 µM.
For the compound `CN1CCN(c2ccc(N/C=C3\C(=O)NC(=O)c4ccc(I)cc43)c(O)n2)CC1` [Example 447, (4Z)-4-({[2-Hydroxy-6-(4-methylpiperazin-1-yl)pyridin-3-yl]amino}methylene)-6-iodoisoquinoline-1,3(2H,4H)-dione], the half-maximal inhibitory concentration (IC50) with LoVo (setting [4]) was 3.5 µM; at cyclin D1/cdk 4 enzyme (setting [1]), 7.5 µM; in the assay with BT474 (setting [6]), 3 µM; in the assay with HCT-116 (setting [7]), 2 µM; at cyclin B/CDK1 enzyme (setting [2]), 12.9 µM; at cyclin E/CDK2 enzyme (setting [3]), 17.6 µM. Besides, the IC50 in the assay with MCF-7 (setting [10]) came to 3.6 µM.
With “(4Z)-6-Piperidin-1-yl-4-({[4-(methylPiperzin-1-yl)phenyl]amino}methylene)isoquinoline-1,3(2H,4H)-dione [Example 119]”, the concentration for half-maximal inhibition (IC50) was 7.3 µM with LoVo (LoVo cells, SRB, three days); 1.62 µM at cyclin D1/cdk 4 enzyme (setting [1]); 7.5 µM in the assay with BT474 (BT474 cells, SRB, 6 days); 3.3 µM in the assay with HCT-116 (HCT116 cells, SRB, three days); over 50 µM at cyclin B/CDK1 enzyme (setting [2]); over 50 µM at cyclin E/CDK2 enzyme (setting [3]). The IC50 with MCF-7 (MCF-7 cells, SRB, three days) is 6.2 µM.
Turning to `CN(C)CCCN/C=C1\C(=O)NC(=O)c2ccc(Br)cc21` [Example 306, (Z)-6-Bromo-4-((3-(dimethylamino)propylamino)methylene)isoquinoline-1,3(2H,4H)-dione], the 50% inhibitory concentration (IC50) is 13 µM in the assay on LoVo (setting [11]); 6.7 µM on cyclin D1/cdk 4 enzyme (setting [1]); 37 µM in the assay on BT474 (setting [12]); 26 µM with HCT-116 (setting [13]); over 50 µM at cyclin B/CDK1 enzyme (setting [2]); over 50 µM on cyclin E/CDK2 enzyme (setting [3]). Further, the concentration for half-maximal inhibition (IC50) with MCF-7 (setting [14]) was 25 µM.
In the case of `NS(=O)(=O)c1ccc(CNC=C2C(=O)NC(=O)c3ccc(-c4ccc(F)cc4)cc32)cc1` [Example 738, 4-({[6-(4-Fluoro-phenyl)-1,3-dioxo-2,3-dihydro-1H-isoquinolin-4-ylidenemethyl]-amino}-methyl)-benzenesulfonamide], the IC50 with LoVo (setting [4]) came to 39.1 µM; on cyclin D1/cdk 4 enzyme (setting [5]), 0.45 µM; with BT474 (setting [6]), 47.1 µM; in the assay on HCT-116 (setting [7]) it was 18.8 µM; on cyclin B/CDK1 enzyme (setting [8]) it was 32.4 µM; on cyclin E/CDK2 enzyme (setting [9]) it was 32.4 µM. For the same compound, the IC50 in the assay with MCF-7 (setting [10]) amounted to 15.8 µM.
Take `CCCOc1ccc(CN/C=C2\C(=O)NC(=O)c3ccc(-c4ccc(F)c(F)c4)cc32)cc1O` [Example 194, (4Z)-6-(3,4-Difluorophenyl)-4-{[(3-hydroxy-4-propoxybenzyl)amino]methylene}-isoquinoline-1,3(2H,4H)-dione]: the IC50 with LoVo (setting [11]) was over 50 µM; at cyclin D1/cdk 4 enzyme (setting [1]), 15.8 µM; in the assay on BT474 (setting [12]), over 50 µM; in the assay on HCT-116 (setting [13]), over 50 µM; on cyclin B/CDK1 enzyme (setting [2]), over 50 µM; on cyclin E/CDK2 enzyme (setting [3]), over 50 µM. For the same compound, the IC50 with MCF-7 (setting [14]) came to 9.1 µM.
As for `COC[C@@H]1CCCN1Cc1ccc(N/C=C2\C(=O)NC(=O)c3ccc(I)cc32)cc1` [Example 285, (4Z)-6-Iodo-4-{[(4-{[(2S)-2-(methoxymethyl)pyrrolidin-1-yl]methyl}phenyl)amino]methylene}isoquinoline-1,3(2H,4H)-dione], the IC50 was 3.6 µM in the assay on LoVo (setting [11]); 0.76 µM at cyclin D1/cdk 4 enzyme (setting [1]); 0.37 µM with BT474 (setting [12]); 3.6 µM in the assay with HCT-116 (setting [13]); over 50 µM on cyclin B/CDK1 enzyme (setting [2]); over 50 µM at cyclin E/CDK2 enzyme (setting [3]). In the assay with MCF-7 (setting [14]), the 50% inhibitory concentration (IC50) came out at 0.79 µM.
In the case of `Nc1cnc(CN/C=C2\C(=O)NC(=O)c3ccc(I)cc32)cc1O` [Example 424, 4-{[(5-Amino-4-hydroxy-pyridin-2-ylmethyl)-amino]-methylene}-6-iodo-4H-isoquinoline-1,3-dione], the IC50 was over 50 µM in the assay on LoVo (setting [4]); 0.06 µM at cyclin D1/cdk 4 enzyme (setting [1]); 12.7 µM in the assay on BT474 (setting [6]); over 50 µM in the assay on HCT-116 (setting [7]); 6.3 µM on cyclin B/CDK1 enzyme (setting [2]); 1.5 µM at cyclin E/CDK2 enzyme (setting [3]). The IC50 in the assay with MCF-7 (setting [10]) was over 50 µM.
Take `CN(C)CC1CCN(c2ccc(N/C=C3\C(=O)NC(=O)c4ccc(I)cc43)cc2)CC1` [Example 454, (4Z)-4-{[(4-{4-[(Dimethylamino)methyl]piperidin-1-yl}phenyl)amino]methylene}-6-iodoisoquinoline-1,3(2H,4H)-dione]: the IC50 in the assay on LoVo (setting [4]) was 10.5 µM; on cyclin D1/cdk 4 enzyme (setting [1]) it was 0.36 µM; with BT474 (setting [6]), 10.5 µM; in the assay on HCT-116 (setting [7]), 7.4 µM; on cyclin B/CDK1 enzyme (setting [2]) it was over 50 µM; on cyclin E/CDK2 enzyme (setting [3]), over 50 µM. The 50% inhibitory concentration (IC50) in the assay with MCF-7 (setting [10]) was determined as 11.5 µM.
